These results are taken from patent US20250325552A1, “SUBSTITUTED THIADIAZOLYL DERIVATIVES AS DNA POLYMERASE THETA INHIBITORS” (IDEAYA Biosciences, Inc., priority 2020, published 2025).

A word on the IC50: it is the concentration that gives 50% inhibition.

Chain of Polθ theta (1-899) (hPolQ) (O75417 1-899): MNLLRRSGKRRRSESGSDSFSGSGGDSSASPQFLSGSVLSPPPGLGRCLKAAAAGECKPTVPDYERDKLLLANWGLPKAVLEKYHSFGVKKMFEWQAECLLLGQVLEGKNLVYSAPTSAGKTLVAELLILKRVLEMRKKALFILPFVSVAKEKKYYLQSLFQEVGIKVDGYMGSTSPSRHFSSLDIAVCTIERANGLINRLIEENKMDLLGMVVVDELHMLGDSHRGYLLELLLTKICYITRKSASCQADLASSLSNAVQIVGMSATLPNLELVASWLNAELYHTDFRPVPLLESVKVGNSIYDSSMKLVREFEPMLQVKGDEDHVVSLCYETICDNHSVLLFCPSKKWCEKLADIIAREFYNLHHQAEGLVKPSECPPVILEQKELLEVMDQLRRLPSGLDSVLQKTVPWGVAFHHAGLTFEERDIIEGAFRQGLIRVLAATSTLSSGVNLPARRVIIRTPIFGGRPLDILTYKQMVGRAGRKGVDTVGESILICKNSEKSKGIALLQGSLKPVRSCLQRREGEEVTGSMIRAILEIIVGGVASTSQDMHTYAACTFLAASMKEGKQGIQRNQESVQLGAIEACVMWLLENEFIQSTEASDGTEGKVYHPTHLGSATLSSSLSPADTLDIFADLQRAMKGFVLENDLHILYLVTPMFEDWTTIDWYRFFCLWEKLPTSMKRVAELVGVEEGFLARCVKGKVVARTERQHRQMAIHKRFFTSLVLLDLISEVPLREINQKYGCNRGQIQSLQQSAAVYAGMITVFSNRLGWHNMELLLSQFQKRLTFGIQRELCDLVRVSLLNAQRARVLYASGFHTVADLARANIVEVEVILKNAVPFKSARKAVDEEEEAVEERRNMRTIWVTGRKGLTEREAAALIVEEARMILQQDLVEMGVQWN

The experiment has as its target Polθ theta (1-899) (hPolQ) (Homo sapiens (Human), UniProt O75417). In words: Biological Assay 1: Polθ ATPase activity, NADH oxidation-coupled enzymatic assay (10 nM enzyme, 30 min). Type of experiment: biochemical. The settings on record: Polθ (1-899) 10 nM, 100 μM ATP, 300 nM dT50 ssDNA; Examples 1 to 268; read-out: ATPase NADH coupling:Standard Screening:hPolQ IC50. How it is done:
The ability of the compounds of Formula (I), (II), (III), (IV), or Table 1 (Examples 1 to Example 268) to inhibit ATPase activity of Polθ theta (1-899) was determined using the assay described below.
Polθ Theta ATPase activity was determined by measuring the rate of ATP turn over in a NADH oxidation-coupled enzymatic assay. 10-point dilution series of compounds were used in a 384 well format for the inhibition assays. Polθ theta (1-899) (10 nM) in assay buffer (20 mM Tris HCl (pH 7.80), 80 mM KCl, 10 mM MgCl2, 1 mM DTT, 0.01% BSA, 0.01% Tween, 5% glycerol) was transferred to the test wells (20 μL), except the low control wells (20 μL of assay buffer was added to the low control wells). The plate was then incubated at room temperature for 15 min. An equal volume (20 μL) of 100 μM ATP, 300 nM dT50 (single-stranded DNA (ssDNA) containing 50 thymine bases), 300 μM NADH, 6 mM PEP, 10 U/mL lactate dehydrogenase and U/mL pyruvate kinase in assay buffer was added to all the test wells. The plate was then centrifuged at 1000 rpm for 1 min. The reaction was monitored for 30 min by measuring absorbance (λ=340 nm) in a Tecan Spark multimode plate reader every minute. The high control (DMSO with enzyme) with low absorbance intensity represents no inhibition of ATPase reaction while the low control (DMSO with buffer) with high absorbance intensity represents full inhibition of ATPase activity. Slope of the reaction progress curves were used to calculate the rate of ATP hydrolysis. The rates were used to determine the percent inhibition using a four-parameter inhibition model to generate IC50, Hill slope and max inhibition.
As for `COc1ccccc1-c1cnccc1C(=O)Nc1nnc(OCC2CCCc3[nH]ncc32)s1` (stereo not drawn) [compound 3, 3-(2-methoxyphenyl)-N-(5-(4,5,6,7-tetrahydro-1H-indazol-4-ylmethoxy)-1,3,4-thiadiazol-2-yl)pyridine-4-carboxamide], the half-inhibitory concentration (IC50) is at most 200 nM. Under `COc1cnc(Cl)cc1-c1cc(C)ncc1C(=O)Nc1nnc(OC[C@@H]2CCO[C@@H]2C)s1` (single isomer, unassigned) [Example 179] stands at most 200 nM; under `COc1cnc(Cl)cc1-c1cc(C)ncc1C(=O)Nc1nnc(OCC2CCO2)s1` (racemic) [Example 165, 2′-chloro-5′-methoxy-6-methyl-N-(5-(oxetan-2-ylmethoxy)-1,3,4-thiadiazol-2-yl)-(4,4′-bipyridine)-3-carboxamide], at most 200 nM. Under `COc1cnc(Cl)cc1-c1cc(C)ncc1C(=O)Nc1nnc(OC[C@@H]2COC3(CCC3)C2)s1` (single isomer, unassigned) [Example 226] stands at most 200 nM; under `COc1cnc(Cl)cc1-c1cc(C)ncc1C(=O)Nc1nnc(OC[C@]2(F)CCOC2)s1` (single isomer, unassigned) [Example 264], at most 200 nM. Under `COc1cnc(Br)cc1-c1cc(C)ncc1C(=O)Nc1nnc(OCC2CCOC2)s1` (racemic) [Example 260, 2′-bromo-5′-methoxy-6-methyl-N-(5-((tetrahydrofuran-3-yl)methoxy)-1,3,4-thiadiazol-2-yl)-(4,4′-bipyridine)-3-carboxamide] stands at most 200 nM.

Turning to “N-(5-(((S)-1,4-dioxan-2-yl)methoxy)-1,3,4-thiadiazol-2-yl)-3′-fluoro-5′-methoxy-2′,6-dimethyl-(4,4′-bipyridine)-3-carboxamide [Example 241]”, the IC50 is at most 200 nM.

Regarding `COc1ccc(COc2nnc(NC(=O)c3cnc(C)cc3-c3cc(Cl)ccc3OC)s2)nc1` [Example 52, 4-(5-chloro-2-methoxyphenyl)-N-(5-((5-methoxypyridin-2-yl)methoxy)-1,3,4-thiadiazol-2-yl)-6-methylpyridine-3-carboxamide], the IC50 was at most 200 nM.

On to `COc1ccccc1-c1cc(C)ncc1C(=O)Nc1nnc(OCc2cccc(CO)n2)s1` [Example 6, N-(5-((6-(hydroxymethyl)pyridin-2-yl)methoxy)-1,3,4-thiadiazol-2-yl)-4-(2-methoxyphenyl)-6-methylpyridine-3-carboxamide], for which the IC50 was at most 200 nM. Under `COc1cnc(Cl)cc1-c1cc(C)ncc1C(=O)Nc1nnc(OC[C@H]2CCO[C@H]2C)s1` (single isomer, unassigned) [Example 181] stands at most 200 nM. On to `COc1cccc(F)c1-c1cc(C)ncc1C(=O)Nc1nnc(OCc2ccn(C)n2)s1` [Example 15, 4-(2-fluoro-6-methoxyphenyl)-6-methyl-N-(5-((1-methylpyrazol-3-yl)methoxy)-1,3,4-thiadiazol-2-yl)pyridine-3-carboxamide], for which the IC50 was at most 200 nM. In the case of `COc1c(-c2cc(C)ncc2C(=O)Nc2nnc(OCc3ccc(Cl)cn3)s2)ccnc1C#N` [Example 85, N-(5-((5-chloropyridin-2-yl)methoxy)-1,3,4-thiadiazol-2-yl)-2′-cyano-3′-methoxy-6-methyl-[4,4′-bipyridine]-3-carboxamide] it was at most 200 nM. In the case of `COc1cnc(Cl)cc1-c1cc(C)ncc1C(=O)Nc1nnc(OCC2CCC2(F)F)s1` (stereo not drawn) [Example 204, 2′-chloro-N-(5-((2,2-difluorocyclobutyl)methoxy)-1,3,4-thiadiazol-2-yl)-5′-methoxy-6-methyl-(4,4′-bipyridine)-3-carboxamide] it was at most 200 nM; in that of `COc1cccc(F)c1-c1cc(C)ncc1C(=O)Nc1nnc(OCc2ccc(C(C)(C)OC)cn2)s1` [Example 80, 4-(2-fluoro-6-methoxyphenyl)-N-(5-((5-(2-methoxypropan-2-yl)pyridin-2-yl)methoxy)-1,3,4-thiadiazol-2-yl)-6-methylnicotinamide], at most 200 nM; in that of `COc1cnc(Cl)cc1-c1cc(C)ncc1C(=O)Nc1nnc(OCc2ccc(C(C)(C)O)cn2)s1` [Example 58, 2′-chloro-N-(5-((5-(2-hydroxypropan-2-yl)pyridin-2-yl)methoxy)-1,3,4-thiadiazol-2-yl)-5′-methoxy-6-methyl-[4,4′-bipyridine]-3-carboxamide], at most 200 nM. Under `COc1cnc(Cl)cc1-c1cc(C)ncc1C(=O)Nc1nnc(OCc2cnc(CO)cn2)s1` [Example 145, 2′-chloro-N-(5-((5-(hydroxymethyl)pyrazin-2-yl)methoxy)-1,3,4-thiadiazol-2-yl)-5′-methoxy-6-methyl-(4,4′-bipyridine)-3-carboxamide] stands at most 200 nM; under `COc1cnc(Cl)cc1-c1cc(C)ncc1C(=O)Nc1nnc(OC[C@H]2CC[C@H](OC(F)F)CC2)s1` [Example 159, 2′-chloro-N-(5-(((1r,4r)-4-(difluoromethoxy)cyclohexyl)methoxy)-1,3,4-thiadiazol-2-yl)-5′-methoxy-6-methyl-(4,4′-bipyridine)-3-carboxamide], at most 200 nM. Turning to `COc1ccc(COc2nnc(NC(=O)c3cnc(C)cc3-c3ccccc3OC(F)F)s2)nc1` [Example 53, 4-(2-(difluoromethoxy)phenyl)-N-(5-((5-methoxypyridin-2-yl)methoxy)-1,3,4-thiadiazol-2-yl)-6-methylnicotinamide], the half-inhibitory concentration (IC50) was at most 200 nM. Under `COc1cnc(Cl)cc1-c1cc(C)ncc1C(=O)Nc1nnc(OC[C@H]2CC[C@H](F)CC2)s1` [Example 197, 2′-chloro-N-(5-(((1r,4r)-4-fluorocyclohexyl)methoxy)-1,3,4-thiadiazol-2-yl)-5′-methoxy-6-methyl-(4,4′-bipyridine)-3-carboxamide] stands at most 200 nM.

With `COc1ccccc1-c1cc(C)ncc1C(=O)Nc1nnc(OCc2ccc(CO)cn2)s1` [compound 5, N-(5-((5-(hydroxymethyl)pyridin-2-yl)methoxy)-1,3,4-thiadiazol-2-yl)-4-(2-methoxyphenyl)-6-methylnicotinamide], the IC50 is at most 200 nM. Under `COc1cnc(Cl)cc1-c1cc(C)ncc1C(=O)Nc1nnc(OC[C@]23COC[C@H]2C3)s1` (single isomer, unassigned) [Example 231] stands at most 200 nM. Under `COc1cnc(Cl)c(F)c1-c1cc(C)ncc1C(=O)Nc1nnc(OCC23CC(O)(C2)C3)s1` [Example 185, 2′-chloro-3′-fluoro-N-(5-((3-hydroxybicyclo(1.1.1)pentan-1-yl)methoxy)-1,3,4-thiadiazol-2-yl)-5′-methoxy-6-methyl-(4,4′-bipyridine)-3-carboxamide] stands at most 200 nM; under `COc1ccccc1-c1cc(C)ncc1C(=O)Nc1nnc(OCc2ccc(C3(CO)CC3)cn2)s1` [Example 7, N-(5-((5-(1-(hydroxymethyl)cyclopropyl)pyridin-2-yl)methoxy)-1,3,4-thiadiazol-2-yl)-4-(2-methoxyphenyl)-6-methylnicotinamide], at most 200 nM. In the case of `COc1ccccc1-c1cc(C)ncc1C(=O)Nc1nnc(O[C@@H](CO)c2ccc(Cl)cn2)s1` [Example 29, (R)—N-(5-(1-(5-chloropyridin-2-yl)-2-hydroxyethoxy)-1,3,4-thiadiazol-2-yl)-4-(2-methoxyphenyl)-6-methylnicotinamide] it was 1000 to 10000 nM; in that of `COc1cnc(Cl)cc1-c1cc(C)ncc1C(=O)Nc1nnc(OC[C@@H]2CO[C@H](C)C2)s1` (single isomer, unassigned) [Example 253], at most 200 nM; in that of `COCc1cccc(COc2nnc(NC(=O)c3cnc(C)cc3-c3ccccc3OC)s2)n1` [Example 26, N-(5-((6-(methoxymethyl)pyridin-2-yl)methoxy)-1,3,4-thiadiazol-2-yl)-4-(2-methoxyphenyl)-6-methylnicotinamide], 200 to 500 nM. Take `COc1cnc(C)c(F)c1-c1cc(C)ncc1C(=O)Nc1nnc(OCC23CCC(O)(CC2)CC3)s1` [Example 219, 3′-fluoro-N-(5-((4-hydroxybicyclo(2.2.2)octan-1-yl)methoxy)-1,3,4-thiadiazol-2-yl)-5′-methoxy-2′,6-dimethyl-(4,4′-bipyridine)-3-carboxamide]: the IC50 is at most 200 nM. In the case of `COc1ccccc1-c1cc(C)ncc1C(=O)Nc1nnc(OCc2ccc(C3(C(=O)O)CC3)cn2)s1` [compound 4, 1-(6-(((5-(4-(2-methoxyphenyl)-6-methylnicotinamido)-1,3,4-thiadiazol-2-yl)oxy)methyl)pyridin-3-yl)cyclopropane-1-carboxylic acid] it was at most 200 nM; in that of `COCc1ccc(COc2nnc(NC(=O)c3cnc(C)cc3-c3c(F)cccc3OC)s2)nc1` [Example 34, 4-(2-fluoro-6-methoxyphenyl)-N-(5-((5-(methoxymethyl)pyridin-2-yl)methoxy)-1,3,4-thiadiazol-2-yl)-6-methylnicotinamide], at most 200 nM; in that of `COc1ccccc1-c1cnccc1C(=O)Nc1nnc(OCC2CCCCO2)s1` (stereo not drawn) [compound 2, 3-(2-methoxyphenyl)-N-(5-((tetrahydro-2H-pyran-2-yl)methoxy)-1,3,4-thiadiazol-2-yl)isonicotinamide], 200 to 500 nM.
